This test deals with Inosine-5'-monophosphate dehydrogenase (IMPDH) (Homo sapiens, UniProt P20839+P12268). The test can be described thus: Inhibitory activity against (IMPDH) inosine 5'-monophosphate dehydrogenase. It is filed as protein assay.
For the compound `CC(C)(C)NC(=O)C(=O)Nc1ccc(-c2cnco2)c(Cl)c1`, the IC50 (as a rule, the concentration needed to halve the response being measured) is 0.18 µM.
In turn, `COc1cc(NC(=O)C(=O)NC(C)(C)C)ccc1-c1cnco1` had an IC50 of 0.04 µM.
Consider `CC(C)(C)NC(=O)C(=O)Nc1ccc(-c2cnco2)cc1`, for which the IC50 was 20 µM.
For `Cc1ncoc1-c1ccc(NC(=O)C(=O)NC(C)(C)C)cc1` the value was 14 µM.
`N#Cc1ccc2[nH]ccc2c1` came in with an IC50 of 99 µM.
For `COc1ccc2[nH]cc(C(=O)CSc3ccncc3)c2c1` the value was 32 µM.
With `CCCCc1ncoc1-c1ccc(NC(=O)C(=O)NC(C)(C)C)cc1OC` the figure was 27 µM; with `COc1ccc(NC(=O)C(=O)NC(C)(C)C)cc1-c1cnco1`, 16 µM; with `COc1cc(NC(=O)C(=O)NC(C)(C)C)ccc1-c1ccc[nH]1`, 2.4 µM.
`COc1cc(NC(=O)C(=O)NC(C)(C)C)ccc1-c1nc[nH]n1` gave an IC50 of 15 µM.
Consider `COc1ccc(C#N)c2ccccc12`, for which the IC50 is 31 µM.
In the case of `CCOc1cc(NC(=O)C(=O)NC(C)(C)C)ccc1-c1cnco1`, the IC50 turned out to be 1.3 µM.
For `Nc1ccnc2cc(Cl)ccc12` the value was 168 µM; for `COc1ccc(NC(=O)C(=O)NC(C)(C)C)cc1OC`, 21 µM; for `COc1cc(NC(=O)C(=O)NC(C)(C)C)ccc1-c1ocnc1Cc1ccccc1`, 35 µM.
Compound `CC(C)(C)NC(=O)C(=O)Nc1ccc(-c2cnco2)c(F)c1` registered an IC50 of 0.73 µM.
Compound `COc1cc(NC(=O)C(=O)NC(C)(C)C)ccc1-c1ocnc1C` displayed an IC50 of 0.43 µM.
Consider `COc1cc(NC(=O)C(=O)NC(C)(C)C)ccc1-c1ccco1`, for which the 50% inhibitory concentration (IC50) stood at 8.1 µM.
`COc1cc(N)ccc1-c1cnco1`: the IC50 is 19 µM.
As to `Cc1cc2c(cc1C)C(=O)C(C#N)CO2` (centres undefined), the IC50 stood at 88 µM.
For `COc1cc(NC(=O)C(=O)NC(C)(C)C)ccc1-c1cocn1` the value was 0.47 µM.
`Oc1cccc2[nH]c3ccccc3c12` displayed an IC50 of 54 µM.
The compound `N#Cc1c[nH]c2ccccc12` came in with an IC50 of 32 µM.
`CC(C)(C)NC(=O)C(=O)Nc1ccc(-c2cnco2)c(O)c1` came in with an IC50 of 4.4 µM.
`CC(C)(C)NC(=O)C(=O)Nc1ccc(-c2cnco2)c(C(F)(F)F)c1` gave a concentration for half-maximal inhibition (IC50) of 18 µM.
With `CC(=O)c1ccc(O)cc1C`, the IC50 turned out to be 620 µM.
As to `CCc1cc(NC(=O)C(=O)NC(C)(C)C)ccc1-c1cnco1`, the IC50 is 1.2 µM.
On to `Cc1cc(NC(=O)C(=O)NC(C)(C)C)ccc1-c1cnco1`, for which the IC50 was 0.2 µM.
In turn, `COc1cc(NC(=O)C(=O)NC(C)(C)C)ccc1-c1cncs1` displayed a half-maximal inhibitory concentration (IC50) of 0.91 µM.

For the origin of these results see ChEMBL document CHEMBL1136381, “Discovery of novel low molecular weight inhibitors of IMPDH via virtual needle screening” (Bioorg Med Chem Lett, 2003).
